Laboratory results taken from ChEMBL document CHEMBL1151918 (Bioorg Med Chem, 2009).
pKi: −log10 of the molar value. Structures can show the parent of a compound that is named as a salt.

Experiments:
Histamine H3 receptor = Histamine H3 receptor (Homo sapiens, UniProt Q9Y5N1); experiment: Displacement of [3H]N-alpha-methylhistamine from human histamine H3 receptor expressed in human SK-N-MC cells by liquid scintillation counting; assay type: cell-based
Histamine H4 receptor [1] = target: T1, Histamine H4 receptor (Homo sapiens, UniProt Q9H3N8); experiment: Displacement of [3H]histamine from human histamine H4 receptor expressed in human SK-N-MC cells by liquid scintillation counting; assay type: cell-based
Histamine H4 receptor [2] = target: T1, Histamine H4 receptor; experiment: Antagonist activity at human histamine H4 receptor expressed in human SK-N-MC cells assessed as inhibition of 2-[3-(imidazol-4-yl)-propyl]-1-(4-iodo-benzyl)-isothiourea dihydrobromide-induced intrinsic activity; assay type: functional, cell-based; conditions: read-out: pA2 (converted)

Histamine H3 receptor, sequence (Q9Y5N1 whole entry): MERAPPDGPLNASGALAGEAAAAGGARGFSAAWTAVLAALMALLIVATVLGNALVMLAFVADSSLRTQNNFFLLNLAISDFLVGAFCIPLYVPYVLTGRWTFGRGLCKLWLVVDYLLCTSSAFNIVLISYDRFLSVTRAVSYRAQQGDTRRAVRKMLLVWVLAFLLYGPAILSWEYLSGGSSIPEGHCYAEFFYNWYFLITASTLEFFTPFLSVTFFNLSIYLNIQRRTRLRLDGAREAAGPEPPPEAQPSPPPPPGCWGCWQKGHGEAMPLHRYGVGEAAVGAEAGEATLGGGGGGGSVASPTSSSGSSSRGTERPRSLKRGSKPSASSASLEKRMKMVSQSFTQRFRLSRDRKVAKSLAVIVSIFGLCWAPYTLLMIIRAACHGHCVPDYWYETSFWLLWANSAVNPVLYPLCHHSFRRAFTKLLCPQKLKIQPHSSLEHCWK
T1 sequence (Q9H3N8 whole entry): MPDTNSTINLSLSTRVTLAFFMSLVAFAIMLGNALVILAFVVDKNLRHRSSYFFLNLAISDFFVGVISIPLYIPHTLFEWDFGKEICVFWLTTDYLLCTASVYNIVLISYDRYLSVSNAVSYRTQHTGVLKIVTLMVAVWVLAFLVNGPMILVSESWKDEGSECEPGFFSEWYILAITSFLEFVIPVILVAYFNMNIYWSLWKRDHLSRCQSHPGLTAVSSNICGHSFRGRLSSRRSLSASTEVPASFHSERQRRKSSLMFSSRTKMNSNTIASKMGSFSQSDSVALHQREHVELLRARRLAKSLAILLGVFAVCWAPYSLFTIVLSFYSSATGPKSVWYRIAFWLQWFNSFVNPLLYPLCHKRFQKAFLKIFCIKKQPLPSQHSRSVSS

Row | SMILES | pKi (Histamine H3 receptor) | pKi (Histamine H4 receptor [1]) | Kb (Histamine H4 receptor [2]) [nM]
1 | N=C(NCc1ccccc1Cl)SCCCc1c[nH]cn1 | 8.10 | 8.00 | 
2 | COc1ccc(CNC(=N)SCCCc2c[nH]cn2)cc1 | 8.10 | 7.90 | 
3 | Cc1ccc(CCNC(=N)SCCCc2c[nH]cn2)cc1 | 7.90 | 7.00 | 
4 | N=C(NCc1ccc(I)cc1)SCCCc1c[nH]cn1 | 8.50 | 8.00 | 
5 | N=C(NCCc1ccc(Cl)cc1)SCCCc1c[nH]cn1 | 8.00 | 7.50 | 
6 | N=C(NCCC(c1ccccc1)c1ccccc1)SCCCc1c[nH]cn1 | 7.50 | 7.60 | 
7 | N=C(NCc1ccccc1)SCCCc1c[nH]cn1 | 8.10 | 7.60 | 20
8 | COc1ccc(CCNC(=N)SCCCc2c[nH]cn2)cc1 | 7.70 | 6.80 | 
9 | N=C(NCc1cccc(Cl)c1)SCCCc1c[nH]cn1 | 8.10 | 7.80 | 
10 | N=C(NCc1ccc(F)cc1)SCCCc1c[nH]cn1 | 8.30 | 7.60 | 
11 | Cc1ccc(CNC(=N)SCCCc2c[nH]cn2)cc1 | 8.20 | 7.60 | 
12 | N=C(NCCc1ccccc1)SCCCc1c[nH]cn1 | 7.70 | 7.20 | 
13 | N=C(NCCCc1ccccc1)SCCCc1c[nH]cn1 | 8.00 | 7.30 | 
14 | N=C(NCc1ccc(Cl)c(Cl)c1)SCCCc1c[nH]cn1 | 8.20 | 8.80 | 
15 | N=C(NCc1ccc(Br)cc1)SCCCc1c[nH]cn1 | 8.60 | 8.00 | 
16 | N=C(N)SCCCc1c[nH]cn1 | 8.60 | 7.90 | 
17 | NC(=NCCCCc1ccccc1)SCCCc1cnc[nH]1 | 7.70 | 7.20 | 
18 | NC(=NCCCc1cnc[nH]1)NCc1ccccc1 | 7.10 | 7.60 | 
19 | NC(=NCCc1ccc(Br)cc1)SCCCc1cnc[nH]1 | 8.10 | 7.40 | 
20 | N=C(NC=C(c1ccccc1)c1ccccc1)NCCCc1c[nH]cn1 | 6.50 | 6.80 | 
21 | NC(=NCc1ccc(Cl)cc1)SCCCc1cnc[nH]1 [CLOBENPROPIT] |  | 8.00 | 
22 | N=C(N)SCCc1cnc[nH]1 [IMETIT] | 8.80 | 8.20 | 
23 | NC(=NCCc1ccc(I)cc1)SCCCc1cnc[nH]1 [IODOPHENPROPIT HYDROBROMIDE] | 8.10 | 7.80 | 
